We go through one compound from US20160081980A1, “Composition Comprising AMD3100 For Preventing or Treating Bone Diseases” (KYUNGPOOK NATIONAL UNIVERSITY INDUSTRY-ACADEMIC COOPERATION …, priority 2013, published 2016).

Assay [1] has as its system SDF-1. The conditions noted are these: AMD3100 5 mg/kg/day intraperitoneal for 21 days vs PBS.
The subject of assay [2] is Osteocalcin, PTHR1, Osterix, Runx2. The conditions noted are these: bone marrow of OVX and control mice, real-time PCR; FIG. 4.
The test system of assay [3] is OVX mice. The conditions noted are these: AMD3100-treated OVX mice compared to PBS-treated OVX mice, 21 days; FIG. 5.
Procedure: 12-week-old female C57BL/6 mice were purchased from Jackson Laboratory (Bar Harbor, ME). Mice were housed in an air-conditioned room with a 12 hour light/dark cycle at a temperature of 22±2° C. and humidity of 45-65%, and given free access to food and tap water. Mice underwent either sham surgery or ovariectomy (OVX) at 12 weeks of age and were sacrificed at 16 weeks of age. One week after surgery, sham-operated and OVX mice received an intraperitoneal injection with AMD3100 (Sigma-Aldrich #A5602, St. Louis, Mo., sigma Aldrich.com) (5 mg/kg/day) or PBS for 21 days. At the end of treatment, the mice were sacrificed, and blood samples were collected by cardiac puncture for the colony-forming unit (CFU) assay.
Single-cell suspensions of peripheral blood (PB) after ammonium chloride lysis were plated into 35 mm dishes (3×10^5 cells/plate) with MethoCult GF M3434 (StemCell Technologies). Hematopoietic colonies were counted and scored after incubation for 12-14 days at 37° C., 5% CO2, as instructed by the manufacturer.
In order to determine whether AMD3100 may mobilize HSPCs from bone marrow in OVX mice, AMD3100 or PBS was administered to OVX mice for 21 days.
In assay [4] the test system is OVX mice. The note with it: AMD3100-treated vs PBS-treated OVX mice; did not reach statistical significance; FIGS. 6 & 7.
Procedure: 12-week-old female C57BL/6 mice were purchased from Jackson Laboratory (Bar Harbor, ME). Mice were housed in an air-conditioned room with a 12 hour light/dark cycle at a temperature of 22±2° C. and humidity of 45-65%, and given free access to food and tap water. Mice underwent either sham surgery or ovariectomy (OVX) at 12 weeks of age and were sacrificed at 16 weeks of age. One week after surgery, sham-operated and OVX mice received an intraperitoneal injection with AMD3100 (Sigma-Aldrich #A5602, St. Louis, Mo., sigma Aldrich.com) (5 mg/kg/day) or PBS for 21 days. At the end of treatment, the mice were sacrificed, and blood samples were collected by cardiac puncture for the colony-forming unit (CFU) assay. Femora were removed, fixed with 4% paraformaldehyde in phosphate-buffered physiological saline solution (pH 7.4) for 16 hours, and then stored at 4° C. in 80% ethanol for measurement of bone density.
Bone marrow cells from the femurs and tibias were collected by flushing with 20 ml PBS passed through a 25-gauge needle. After centrifugation at 1,300 rpm for 5 minutes, the supernatant was removed and the cells were then washed by ammonium chloride lysis. […]
Assay [5] relates to OVX mice. The note with it: AMD3100-treated vs PBS-treated OVX mice.
Assay [6] deals with BM-derived macrophages. The note with it: RANKL 100 ng/ml, M-CSF 30 ng/ml, AMD3100 25 mg/ml for 3 days; FIG. 10.
Procedure: Total RNA was extracted from BM cultures treated with or without RANKL in the presence or absence of AMD3100 (25 g/ml) for 3 days. […] RNA samples were extracted from whole bone marrow (BM) cells of four individual animals per group and isolated from the cultured cells using the RNeasy Mini kit (Qiagen, Hilden, Germany), and the concentration was determined using a Nanodrop ND-1000 spectrophotometer. A total of 5 mg of each RNA was converted to cDNA using the sprint RT complete-oligo (dT) 18 (Clontech, MountainView, Calif., www.clontech.com) according to the manufacturer's guide. The cDNA was quantified using the QuantiTect SYBR Green PCR Kit (Qiagen). The following reaction components were added to each investigated transcript to the indicated end-concentration: forward primer (5 pM), reverse primer (5 pM), and QuantiTect SYBR Green PCR Master mix. The 10 μl master-mix was added to a 0.1 ml tube, and 5 μl volume, containing 100 ng reverse transcribed total RNA, was added as polymerase chain reaction (PCR) template. The tubes were closed, centrifuged, and placed into the Corbett research RG-6000 real-time PCR machine (Corbett LifeScience, Sydney, Australia). The following primers were used: Bone marrow cells were obtained from the femurs and tibias of seven-week-old mice. The bone marrow suspension was added to plates along with macrophage colony stimulating factor (M-CSF; 30 ng/ml). […]
Assay [7] has as its system OVX mice.

As to `c1cc(CN2CCCNCCNCCCNCC2)ccc1CN1CCCNCCNCCCNCC1` [AMD3100, 1,1′-[1,4-Phenylenebis(methylene)]bis[1,4,8,1]-tetraazacyclotetradecanel], the “levels of functional SDF-1 in bone marrow” value in assay [1] (bone marrow supernatant, FIG. 2) was “decreased”. For the same compound, the “levels of functional SDF-1 in plasma” value in assay [1] (plasma, FIG. 3) is “increased”. For the same compound, the “levels of osteoblast lineage-specific genes (Osteocalcin, PTHR1, Osterix, Runx2)” value in assay [2] is “no significant differences”. The “number of CFU cells in blood” value in assay [3] is reported as “significant increase”. For the same compound, the “percentage of Lin-Sca-1+c-Kit+ (LSK) cells in bone marrow” value in assay [4] is recorded as “decrease”. In addition, the “bone density in micro-CT images of the distal femur” value in assay [5] (FIG. 8) was “increased bone density”. Also, in assay [5] (FIG. 9), the “bone mineral density (BMD)” value is recorded as “increase”. Moreover, the “osteoclast differentiation (expression of genes associated with osteoclast differentiation)” value in assay [6] is “did not affect osteoclast differentiation”. In assay [7] (H&E staining, AMD3100 treatment groups, FIG. 13), the “osteoblast number/bone surface [N.Ob/BS (/mm)]” value was “did not change significantly”. For the same compound, in assay [7] (TRAP staining, AMD3100-treated OVX mice, FIG. 11), the “number and size of TRAP+ active osteoclasts in the trabecular region” value is “decrease”. The “osteoclast number/bone surface [N.Oc/BS (/mm)]” value in assay [7] (histomorphometry, AMD3100-treated vs PBS-treated OVX mice, FIG. 12) is reported as “decrease”.
